In US20260345795A1, “MULTIVALENCY FOR ENZYME INHIBITION” (Indiana University Research and Technology Corporation, priority 2022, published 2026):
Where “and” joins values, the source holds several entries; their conditions need not be identical. Equal values may be shown once. Entries after “also recorded” stand apart in the source; their conditions may differ. Read-outs that look alike come from different tables or passages of the source.

Experiments:
Human plasmin = biological target: T1, Human plasmin (Homo sapiens, UniProt P00747); experiment: Plasmin inhibition assay with chromogenic substrate S-2251, Dixon plot / Cornish-Bowden analysis; format: biochemical; conditions: role: inhibitor; for rp1: relative potency = Ki^AMB/Ki^multi: hetero-bivalent inhibitors relative to AMB; for rp2: relative potency = Ki^TXA or EACA/Ki^multi: hetero-bivalent inhibitors relative to TXA or EACA; for mode of inhibition (Cornish-Bowden plot): S-2251; for rp: relative potency = Ki^AMB/Ki^multi: benzamidine inhibitors relative to AMB; for rp/n: relative potency/number of benzamidine units: relative to AMB per benzamidine unit
T1 construct: a heavy chain (~60 kDa) comprising 5 kringle domains
Experimental: Inhibition assays were performed on all synthesized multivalent affinity molecules in addition to free AMB and Pentamidine. […] Ki values were calculated for all multivalent affinity molecules via Dixon Plot analysis using the negative x-intersection point. […] A smaller Ki value indicates a higher degree of inhibition. Cornish-Bowden graphs (S/Vo vs I) were also plotted to verify the type of inhibition, i.e., competitive, uncompetitive, non-competitive, or mixed.
Parameters used to quantify multivalency, namely, relative potency (rp), and relative potency per unit (rp/n) were also computed. To evaluate the strength of the multivalent affinity molecules as compared to the monovalent affinity molecules, rp was used and is a ratio of Ki^mono to Ki^multi Ki of monovalent AMB was used for this calculation since AMB was utilized for synthesis of the multivalent affinity molecules. […] To better evaluate multivalency effects, rp/n was also computed to determine the benefit of linking multiple affinity moieties together.
Human plasmin (42.5 nM) over a range of inhibitor concentrations (0-2 mM) and chromogenic substrate concentrations (Chromogenix S-2251 100-500 μM) were utilized for Inhibition assays.
Human plasmin (42.5 nM) over a range of inhibitor concentrations (0-500 μM) and chromogenic substrate concentrations (Chromogenix S-2251 100-500 μM) were utilized for Inhibition assays.
In this example, homo-multivalent and hetero multivalent micelles were synthesized to determine their plasmin inhibition. […] After weighing and mixing the appropriate lipids amounts in chloroform, a lipid film was made by slowly evaporating chloroform while rotating the vial gently under air. The dried lipid film was placed in a desiccator under vacuum overnight. The lipid film was rehydrated using 2 mL PBS and was sonicated for 2 mins while heating at 60° C. to obtain more rapid and less polydisperse micelle formation by self-assembly. […] Human plasmin (42.5 nM) over a range of inhibitor concentrations (0-500 μM) and chromogenic substrate concentrations (Chromogenix S-2251 100-500 μM) were utilized for Inhibition assays.

tPA = tPA (Homo sapiens, UniProt P00750); experiment: tPA inhibition assay with chromogenic tPA substrate S-2288, Dixon plot analysis; format: biochemical; conditions: role: inhibitor; for Ki / tPA inhibition relative to another inhibitor: tPA 75 nM, S-2288 100-500 μM; for Ki: PBS pH 7.4, read-out: Inhibition constant (Ki); for tPA inhibition compared to plasmin: tPA vs plasmin
Experimental: Inhibition assays were performed using a fixed tPA concentration of 75 nM in PBS pH 7.4 over a range of Chromogenic tPA Substrate (S-2288) concentrations of 100-500 μM.

thrombin = thrombin (Homo sapiens, UniProt P00734); experiment: Thrombin inhibition assay with fluorogenic Thrombin Substrate III, Dixon plot analysis; format: biochemical; conditions: role: inhibitor; for Ki: PBS pH 7.4, 10% DMSO, read-out: Inhibition constant (Ki); for thrombin inhibition compared to plasmin: thrombin vs plasmin
Experimental: In this example, commercially available inhibitors shown in Table 1, Tri-AMB and all hetero-multivalent inhibitors were tested for their thrombin inhibition. Inhibition assays were performed using a fixed thrombin concentration of 0.25 U/mL in PBS pH 7.4 over a range of Thrombin Substrate III (fluorogenic) concentrations of 20-50 μM at 10% DMSO.

[1] = system: light chain and kringle 5 of plasmin; conditions: cited from earlier work
plasmin = conditions: role: inhibitor; Alves et al.; cited from earlier work
[2] = treatment delayed beyond 3 hours; cited from earlier work
[3] = biological target: LBS sites on other kringle domains of plasmin; conditions: role: inhibitor; cited from earlier work
[4] = hetero-bivalent inhibitors, human plasmin 42.5 nM, S-2251 100-500 μM, read-out: Inhibition constant (Ki)
[5] = thrombin 0.25 U/mL, Thrombin Substrate III 20-50 μM
[6] = substrate S-2251 100-500 μM, plasmin 42.5 nM, PBS pH 7.4, benzamidine inhibitors, Dixon plot, read-out: Inhibition constant (Ki)

tPA, sequence (P00750 36-562, species assumed): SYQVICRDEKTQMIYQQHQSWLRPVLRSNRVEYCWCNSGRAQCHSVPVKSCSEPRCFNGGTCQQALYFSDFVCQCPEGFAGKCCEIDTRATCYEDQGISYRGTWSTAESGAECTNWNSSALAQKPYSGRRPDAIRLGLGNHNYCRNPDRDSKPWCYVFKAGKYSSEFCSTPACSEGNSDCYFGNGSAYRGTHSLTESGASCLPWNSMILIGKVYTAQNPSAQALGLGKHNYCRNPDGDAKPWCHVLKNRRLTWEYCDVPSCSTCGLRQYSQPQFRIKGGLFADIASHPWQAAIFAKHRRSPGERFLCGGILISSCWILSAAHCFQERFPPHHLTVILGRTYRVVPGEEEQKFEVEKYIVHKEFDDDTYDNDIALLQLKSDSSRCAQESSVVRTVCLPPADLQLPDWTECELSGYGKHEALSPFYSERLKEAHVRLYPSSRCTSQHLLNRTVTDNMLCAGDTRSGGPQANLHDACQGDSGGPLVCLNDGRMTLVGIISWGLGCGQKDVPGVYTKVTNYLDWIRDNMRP
T1 sequence (P00747 581-810 limits assumed): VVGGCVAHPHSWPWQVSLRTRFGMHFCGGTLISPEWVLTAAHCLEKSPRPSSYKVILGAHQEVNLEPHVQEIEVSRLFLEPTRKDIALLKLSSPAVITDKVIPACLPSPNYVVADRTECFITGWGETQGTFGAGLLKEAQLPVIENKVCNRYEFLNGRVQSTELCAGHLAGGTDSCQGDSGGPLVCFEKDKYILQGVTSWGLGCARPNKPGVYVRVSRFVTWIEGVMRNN
T1 sequence (P00747 97-580 limits assumed): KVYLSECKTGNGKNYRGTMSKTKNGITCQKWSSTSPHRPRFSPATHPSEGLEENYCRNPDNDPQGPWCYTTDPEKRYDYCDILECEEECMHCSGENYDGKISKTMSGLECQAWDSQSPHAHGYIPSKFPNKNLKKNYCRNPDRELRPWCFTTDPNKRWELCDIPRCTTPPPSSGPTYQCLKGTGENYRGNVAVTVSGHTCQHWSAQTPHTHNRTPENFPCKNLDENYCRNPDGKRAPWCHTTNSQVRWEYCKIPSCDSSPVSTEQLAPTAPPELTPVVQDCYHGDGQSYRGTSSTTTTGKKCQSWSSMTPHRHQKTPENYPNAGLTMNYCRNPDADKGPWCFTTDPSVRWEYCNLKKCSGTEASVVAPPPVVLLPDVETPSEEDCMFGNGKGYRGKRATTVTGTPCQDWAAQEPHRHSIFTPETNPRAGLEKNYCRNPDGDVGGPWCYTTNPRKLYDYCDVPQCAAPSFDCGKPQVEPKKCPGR

N=C(N)c1ccc(CNC(=O)CCOCCOCCOCCOCCNC(=O)[C@H]2CC[C@H](CN)CC2)cc1 [TXA-dPEG4-AMB]
Ki (Human plasmin; [4]): 0.042 ± 0.0124 mM
rp1: relative potency = Ki^AMB/Ki^multi (Human plasmin; plasmin, S-2251 100-500 μM): 33
rp2: relative potency = Ki^TXA or EACA/Ki^multi (Human plasmin; plasmin, S-2251 100-500 μM): 509
fold stronger than m-dPEG4-AMB (plasmin inhibition) (Human plasmin; plasmin, relative to m-dPEG4-AMB, S-2251 100-500 μM): over 7 fold
Ki (tPA): 230 ± 30 µM
Ki (thrombin; [5]): 14.5 ± 6.7 µM

N=C(N)c1ccc(N)cc1 [4-amino benzamidine, 4-Aminobenzamidine, reference compound]
Ki (tPA): 148 ± 0.9 µM

COCCOCCOCCOCCOCCOCCOCCOCCOCCOCCOCCOCCOCCOCCOCCOCCOCCOCCOCCOCCOCCOCCOCCOCCC(=O)NCc1ccc(C(=N)N)cc1 [m-dPEG24-AMB]
mode of inhibition (Cornish-Bowden plot) (Human plasmin; plasmin 42.5 nM, PBS pH 7.4): competitive inhibitor
rp: relative potency = Ki^AMB/Ki^multi (Human plasmin; plasmin, S-2251 100-500 μM): 2.7
rp/n: relative potency/number of benzamidine units (Human plasmin; plasmin, S-2251 100-500 μM): 2.7
Ki (Human plasmin; [6]): 0.521 ± 0.0849 mM

NC[C@H]1CC[C@H](C(=O)NCCCC[C@H](NC(=O)[C@H]2CC[C@H](CN)CC2)C(N)=O)CC1 [Bis-TXA]
Ki (Human plasmin; TXA affinity molecules, human plasmin 42.5 nM, S-2251 100-500 μM, read-out: Inhibition constant (Ki)): 6.4 ± 2.03 mM
Ki (Human plasmin; human plasmin 42.5 nM, S-2251 100-500 μM, text value in mM, read-out: Ki (active site inhibition of plasmin)): 6.4 mM
rp: relative potency = Ki^TXA/Ki^multi (Human plasmin; plasmin, TXA affinity molecules relative to TXA, S-2251 100-500 μM): 3.3
rp/n: relative potency/number of TXA units (Human plasmin; plasmin, relative to TXA per TXA unit, S-2251 100-500 μM): 1.7

N=C(N)c1ccc(CNC(=O)CCOCCOCCOCCOCCOCCOCCOCCOCCNC(=O)[C@H]2CC[C@H](CN)CC2)cc1 [TXA-dPEG8-AMB]
Ki (Human plasmin; [4]): 0.099 ± 0.0009 mM
rp1: relative potency = Ki^AMB/Ki^multi (Human plasmin; plasmin, S-2251 100-500 μM): 14
rp2: relative potency = Ki^TXA or EACA/Ki^multi (Human plasmin; plasmin, S-2251 100-500 μM): 216

N=C(N)c1ccc(CNC(=O)CCOCCOCCC(=O)NCc2ccc(C(=N)N)cc2)cc1 [Bis-dPEG2-AMB]
mode of inhibition (Cornish-Bowden plot) (Human plasmin; plasmin 42.5 nM, PBS pH 7.4): competitive inhibition; also recorded: competitive inhibitor
rp: relative potency = Ki^AMB/Ki^multi (Human plasmin; plasmin, S-2251 100-500 μM): 25.2
rp/n: relative potency/number of benzamidine units (Human plasmin; plasmin, S-2251 100-500 μM): 12.6

N=C(N)c1ccccc1 [Benzamidine]
subsite binding [1]: weak subsite binding

N=C(N)c1ccc(OCCCCCOc2ccc(C(=N)N)cc2)cc1 [Pentamidine, reference compound]
mode of inhibition (Cornish-Bowden plot) (Human plasmin; plasmin 42.5 nM, PBS pH 7.4): competitive inhibitor
rp: relative potency = Ki^AMB/Ki^multi (Human plasmin; plasmin, S-2251 100-500 μM): 664.3
rp/n: relative potency/number of benzamidine units (Human plasmin; plasmin, S-2251 100-500 μM): 332.1
Ki (Human plasmin; [6]): 0.0021 mM and 0.0026 mM
fold stronger plasmin inhibitor than the strongest monovalent benzamidine (plasmin): 15 fold
tPA inhibition relative to another inhibitor (tPA): stronger inhibitor than Tri-AMB
Ki (tPA): 48 ± 12 µM
tPA inhibition compared to plasmin (tPA): weaker tPA inhibitors compared to plasmin
thrombin inhibition relative to another inhibitor (thrombin; [5]): slightly stronger thrombin inhibitor than Tri-AMB
Ki (thrombin; [5]): 4.5 ± 2.3 µM
thrombin inhibition compared to plasmin (thrombin): slightly weaker thrombin inhibitors compared to plasmin

N=C(N)c1ccc(CNC(=O)CCOCCOCCOCCOCCNC(=O)CN(CC(=O)NCCOCCOCCOCCOCCC(=O)NCc2ccc(C(=N)N)cc2)CC(=O)NCCOCCOCCOCCOCCC(=O)NCc2ccc(C(=N)N)cc2)cc1 [Tri-dPEG4-AMB]
mode of inhibition (Cornish-Bowden plot) (Human plasmin; plasmin 42.5 nM, PBS pH 7.4): competitive inhibitor
rp: relative potency = Ki^AMB/Ki^multi (Human plasmin; plasmin, S-2251 100-500 μM): 27.6
rp/n: relative potency/number of benzamidine units (Human plasmin; plasmin, S-2251 100-500 μM): 9.2
Ki (Human plasmin; [6]): 0.0505 ± 0.014 mM

N=C(N)c1ccc(CNC(=O)CCOCCOCCOCCOCCNC(=O)CCCCCN)cc1 [EACA-dPEG4-AMB]
Ki (Human plasmin; [4]): 0.233 ± 0.005 mM
rp1: relative potency = Ki^AMB/Ki^multi (Human plasmin; plasmin, S-2251 100-500 μM): 6
rp2: relative potency = Ki^TXA or EACA/Ki^multi (Human plasmin; plasmin, S-2251 100-500 μM): 305
Ki (thrombin; [5]): 5.6 ± 0.2 µM

N=C(N)c1ccc(CNC(=O)CCOCCOCCOCCOCCOCCOCCOCCOCCOCCOCCOCCOCCNC(=O)[C@H]2CC[C@H](CN)CC2)cc1 [TXA-dPEG12-AMB]
Ki (Human plasmin; [4]): 0.207 mM
rp1: relative potency = Ki^AMB/Ki^multi (Human plasmin; plasmin, S-2251 100-500 μM): 7
rp2: relative potency = Ki^TXA or EACA/Ki^multi (Human plasmin; plasmin, S-2251 100-500 μM): 103
tPA inhibition relative to another inhibitor (tPA): stronger tPA inhibitor than TXA-PEG4-AMB
Ki (tPA): 128 ± 11 µM
Ki (thrombin; [5]): 46 ± 1.5 µM

N=C(N)c1ccc(C(=O)O)cc1 [4-carboxy benzamidine, 4-Carboxybenzamidine, reference compound]
Ki (thrombin; [5]): 151 ± 4 µM

NCCCCCC(=O)O [EACA, ε-Aminocaproic Acid, reference compound]
Ki (thrombin; [5]): > 10000 µM

COCCOCCOCCOCCOCCOCCOCCOCCOCCOCCOCCOCCC(=O)NCc1ccc(C(=N)N)cc1 [m-dPEG12-AMB]
mode of inhibition (Cornish-Bowden plot) (Human plasmin; plasmin 42.5 nM, PBS pH 7.4): competitive inhibitor
rp: relative potency = Ki^AMB/Ki^multi (Human plasmin; plasmin, S-2251 100-500 μM): 3.9
rp/n: relative potency/number of benzamidine units (Human plasmin; plasmin, S-2251 100-500 μM): 3.9
Ki (Human plasmin; [6]): 0.36 ± 0.0352 mM

N=C(N)c1ccc(CNC(=O)CN(CC(=O)NCc2ccc(C(=N)N)cc2)CC(=O)NCc2ccc(C(=N)N)cc2)cc1 [Tri-AMB]
Ki (tPA): 112 ± 21 µM
tPA inhibition compared to plasmin (tPA): weaker tPA inhibitors compared to plasmin
Ki (thrombin; [5]): 10.6 ± 2 µM
thrombin inhibition compared to plasmin (thrombin): slightly weaker thrombin inhibitors compared to plasmin

NC[C@H]1CC[C@H](C(=O)O)CC1 [TXA, Tranexamic acid]
clinical trial outcome of delayed treatment [2]: ineffective or harmful
Ki [3]: 0.75 µM

N=C(N)c1ccc(CNC(=O)CCOCCOCCOCCOCCOCCOCCOCCOCCOCCOCCOCCOCCOCCOCCOCCOCCOCCOCCOCCOCCOCCOCCOCCOCCOCCOCCOCCOCCOCCOCCOCCOCCOCCOCCOCCOCCNC(=O)[C@H]2CC[C@H](CN)CC2)cc1 [TXA-dPEG36-AMB]
Ki (Human plasmin; [4]): 0.075 mM and 0.0754 mM
rp1: relative potency = Ki^AMB/Ki^multi (Human plasmin; plasmin, S-2251 100-500 μM): 19
rp2: relative potency = Ki^TXA or EACA/Ki^multi (Human plasmin; plasmin, S-2251 100-500 μM): 285
Ki (thrombin; [5]): 78 ± 1.5 µM

N=C(N)c1ccc(CN)cc1 [AMB, 4-aminomethyl benzamidine, reference compound]
Ki (Human plasmin; [4]): 1.4 ± 0.166 mM
mode of inhibition (Cornish-Bowden plot) (Human plasmin; plasmin 42.5 nM, PBS pH 7.4): competitive inhibitor
Ki (Human plasmin; [6]): 1.4 mM
Ki (tPA): 5210 ± 161 µM
Ki (thrombin; [5]): 344 ± 33 µM
